Measurements taken from PMC8206213, “An L-2-hydroxyglutarate biosensor based on specific transcriptional regulator LhgR” (Nature Communications, 2021).
Where “and” joins values, the source holds several entries; their conditions need not be identical. Equal entries are not always repeated.

What was measured:
[1] = Dose-response of LHGFR expressed in digitonin-permeabilized HEK293FT cells for L-2-HG; format: cell-based, human (HEK293FT cells)
Method: To characterize the sensitivity and specificity of LHGFR expressed in HEK293FT cells, cells were trypsinized 48 h following transfection and suspended in 1× Hank’s balanced salt solution supplemented with 20 mM HEPES. […] Digitonin at a concentration of 10 μM was used to induce cell permeabilization and deplete intracellular L-2-HG for in vivo response curves construction. Then, the fluorescence intensities were determined by a SpectraMax i3 fluorescence plate reader (Molecular Devices, USA) with excitation at 430 nm and emission at 485 nm (mTFP) and 528 nm (Venus). Basal L-2-HG concentration in HEK293FT cells under physiological conditions was determined by substituting the emission ratios of non-permeabilized HEK293FT cells into the calibrated in vivo response curves.

LhgR = assay: EMSA, effect of compounds on LhgR binding to the lhgR promoter region F2; set-up: species or system Pseudomonas putida W619; settings: 30 mM compound, 10 nM F2, 70 nM LhgR
Method: Electrophoretic mobility shift assays (EMSAs) were carried out using the DNA fragment (F1 or F2) and purified LhgR. The DNA fragments were first amplified by primer pairs F1-F/F1-R and F2-F/F2-R, respectively. Then, either fragment at a concentration of 10 nM DNA was incubated with LhgR (0–160 nM) in 20 μL EMSA binding buffer (10 mM Tris-HCl [pH 7.4], 50 mM KCl, 0.5 mM EDTA, 10% [vol/vol] glycerol, and 1 mM dithiothreitol [DTT]). The binding reactions were carried out at 30 °C for 30 min. Electrophoresis was performed on 6% native polyacrylamide gels at 4 °C and 170 V (constant voltage) for about 45 min, followed by staining with SYBR green I (TaKaRa, China) and photographing. Analysis of the interaction between lhgO promoter region (F1) and LHGFR was performed using the same procedure.
To characterize the effector of LhgR, purified LhgR was first incubated with L-lysine, 5-aminovalerate, glutarate, L-2-HG, D-2-HG, 2-KG, or succinate at 30 °C for 15 min, followed by incubation with the added DNA fragments at 30 °C for 30 min. The mixtures were subsequently subjected to electrophoresis.

**Q.** For `O=C(O)CC[C@H](O)C(=O)O` [L-2-HG, L-2-Hydroxyglutarate], which Normalized emission ratio ([1]; Fig. 6c, L-2-HG concentration 0.01) is on record?
**A.** 0.9714 and 1.018 and 1.011

**Q.** What about the Normalized emission ratio ([1]; Fig. 6c, L-2-HG concentration 0.1) of the same compound?
**A.** 1.002 (2×) and 0.9784

**Q.** And the Normalized emission ratio ([1]; Fig. 6c, L-2-HG concentration 1)?
**A.** 1.006 and 0.9618 and 1.048

**Q.** And the Normalized emission ratio ([1]; Fig. 6c, L-2-HG concentration 10)?
**A.** 1.045 and 1.118 and 1.137

**Q.** What about the Normalized emission ratio ([1]; Fig. 6c, L-2-HG concentration 20) of the same compound?
**A.** 1.133 and 1.12 and 1.163

**Q.** And the Normalized emission ratio ([1]; Fig. 6c, L-2-HG concentration 100)?
**A.** 1.245 and 1.312 and 1.322

**Q.** And the Normalized emission ratio ([1]; Fig. 6c, L-2-HG concentration 200)?
**A.** 1.303 and 1.3035 and 1.367

**Q.** And the Normalized emission ratio ([1]; Fig. 6c, L-2-HG concentration 1000)?
**A.** 1.414 and 1.364 and 1.401

**Q.** And the Normalized emission ratio ([1]; Fig. 6c, L-2-HG concentration 2000)?
**A.** 1.387 and 1.439 and 1.425

**Q.** What about the Normalized emission ratio ([1]; Fig. 6c, L-2-HG concentration 10000) of the same compound?
**A.** 1.443 and 1.404 and 1.415

**Q.** And the Normalized emission ratio ([1]; L-2-HG concentration 0.01, Supplementary Fig. 17c)?
**A.** 0.9984 and 1.014 and 0.9873

**Q.** What about the Normalized emission ratio ([1]; L-2-HG concentration 0.01, Supplementary Fig. 18c) of the same compound?
**A.** 0.9865 and 0.9714 and 1.042

**Q.** And the Normalized emission ratio ([1]; L-2-HG concentration 0.1, Supplementary Fig. 17c)?
**A.** 1 and 1.004 and 1.02

**Q.** What about the Normalized emission ratio ([1]; L-2-HG concentration 0.1, Supplementary Fig. 18c) of the same compound?
**A.** 0.9909 and 1.037 and 0.9822

**Q.** What about the Normalized emission ratio ([1]; L-2-HG concentration 1, Supplementary Fig. 17c) of the same compound?
**A.** 1.007 and 1.056 and 1.0486

**Q.** What about the Normalized emission ratio ([1]; L-2-HG concentration 1, Supplementary Fig. 18c) of the same compound?
**A.** 0.9662 and 0.9722 and 0.9935

**Q.** What about the Normalized emission ratio ([1]; L-2-HG concentration 10, Supplementary Fig. 17c) of the same compound?
**A.** 1.22 and 1.297 and 1.235

**Q.** What about the Normalized emission ratio ([1]; L-2-HG concentration 10, Supplementary Fig. 18c) of the same compound?
**A.** 0.9752 and 1.056 and 0.9703

**Q.** And the Normalized emission ratio ([1]; L-2-HG concentration 20, Supplementary Fig. 17c)?
**A.** 1.319 and 1.273 and 1.318

**Q.** What about the Normalized emission ratio ([1]; L-2-HG concentration 20, Supplementary Fig. 18c) of the same compound?
**A.** 1.003 and 1.067 and 0.9797

**Q.** And the Normalized emission ratio ([1]; L-2-HG concentration 100, Supplementary Fig. 17c)?
**A.** 1.392 and 1.387 and 1.431

**Q.** What about the Normalized emission ratio ([1]; L-2-HG concentration 100, Supplementary Fig. 18c) of the same compound?
**A.** 1.048 and 0.9825 and 0.9723

**Q.** What about the Normalized emission ratio ([1]; L-2-HG concentration 200, Supplementary Fig. 17c) of the same compound?
**A.** 1.3826 and 1.447 and 1.484

**Q.** And the Normalized emission ratio ([1]; L-2-HG concentration 200, Supplementary Fig. 18c)?
**A.** 0.9116 and 1.038 and 1.008

**Q.** What about the Normalized emission ratio ([1]; L-2-HG concentration 1000, Supplementary Fig. 17c) of the same compound?
**A.** 1.434 and 1.459 and 1.447

**Q.** And the Normalized emission ratio ([1]; L-2-HG concentration 1000, Supplementary Fig. 18c)?
**A.** 0.9678 and 0.9844 and 0.9663

**Q.** And the Normalized emission ratio ([1]; L-2-HG concentration 2000, Supplementary Fig. 17c)?
**A.** 1.455 and 1.475 and 1.401

**Q.** And the Normalized emission ratio ([1]; L-2-HG concentration 2000, Supplementary Fig. 18c)?
**A.** 0.9838 and 0.9876 and 0.9675

**Q.** And the Normalized emission ratio ([1]; L-2-HG concentration 10000, Supplementary Fig. 17c)?
**A.** 1.475 and 1.44 and 1.4468

**Q.** And the Normalized emission ratio ([1]; L-2-HG concentration 10000, Supplementary Fig. 18c)?
**A.** 0.9794 and 1.103 and 1.106

**Q.** And the “Effect on LhgR binding to the lhgR promoter region F2” value (LhgR)?
**A.** prevent LhgR binding to the lhgR promoter
